Laboratory results published in PubChem BioAssay (NCI).
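Each compound was tested at five concentrations against cells in 96-well plates for 48 hours. TGI denotes the concentration required for complete inhibition of growth.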

Assays:
Test in all cases: inhibition of tumour cell growth, NCI panel, 48 h
ACHN renal = test system: ACHN renal
HCT-116 colon = test system: HCT-116 colon
K-562 leukemia = test system: K-562 leukemia
MDA-N = test system: MDA-N
NCI-H226 lung = test system: NCI-H226 lung
NCI-H460 lung = test system: NCI-H460 lung
OVCAR-4 ovarian = test system: OVCAR-4 ovarian
SF-268 CNS = test system: SF-268 CNS
SR leukemia = test system: SR leukemia
U251 CNS = test system: U251 CNS
UACC-62 melanoma = test system: UACC-62 melanoma
DMS 114 small cell lung = test system: DMS 114 small cell lung
KM20L2 colon = test system: KM20L2 colon

SMILES	TGI (ACHN renal) [µM]	TGI (HCT-116 colon) [µM]	TGI (K-562 leukemia) [µM]	TGI (MDA-N) [µM]	TGI (NCI-H226 lung) [µM]	TGI (NCI-H460 lung) [µM]	TGI (OVCAR-4 ovarian) [µM]	TGI (SF-268 CNS) [µM]	TGI (SR leukemia) [µM]	TGI (U251 CNS) [µM]	TGI (UACC-62 melanoma) [µM]	TGI (DMS 114 small cell lung) [µM]	TGI (KM20L2 colon) [µM]
COc1ccc(N2N=NN(C(C)C)/C2=C(/Cl)c2nnnn2-c2ccc(OC)cc2)cc1	30.7	14.1	> 32.5	27.4	42.2	36.6	11.6	34.6	> 31.8	33.7	28.7		
Nc1ccccc1OCCCOc1ccccc1N	> 100	> 100	> 100	> 100	> 100	> 100	> 100	> 100	> 100	> 100	> 100		
COc1ccc(C2=C(Cl)c3cc(OC)c(OC)cc3C2)cc1OC	> 100	> 100	> 100		> 100		> 100	> 100	> 100	> 100	> 100	> 100	> 100
Cc1cn([C@@H]2C[C@H](CO)[C@@H]2O)c(=O)[nH]c1=O	> 100	> 100	> 100	> 100	> 100	> 100	> 100	> 100	> 100	> 100			
COc1ccc(CCCN2c3ccccc3Sc3ccccc32)cc1	> 100	> 100	> 100		> 100	> 100	> 100	> 100		> 100	> 100	> 100	> 100
O=C(NN1C(=O)C(Cl)C1c1ccccc1Cl)c1ccccc1O (stereo unspecified)	> 100	> 100	> 100		> 100	> 100	> 100	> 100		> 100	> 100	> 100	
COc1cc(/C=C/C(=N\NC(=S)NN)c2sc(NNC(C)=O)nc2C)ccc1O	> 100	> 100	> 100	> 100	> 100	> 100	> 100	> 100	> 100	> 100	> 100		
CCN(CC)c1ccc2cc(C(N)=O)c(=Nc3ccc(F)cc3)oc2c1	> 100	> 100	> 100	> 100	> 100	> 100	> 100	> 100	> 100	> 100	> 100		
O=C1c2cccnc2-c2nccc3c2c1nc1ccc(Br)cc13	0.0957	0.0324	0.331	0.249	0.0639	0.125	0.324	0.143	0.0372	0.147	0.124		
O=C1CCCCN1C(=O)c1ccc([N+](=O)[O-])cc1	> 100	> 100	> 100	> 100	> 100	> 100	> 100	> 100	> 100	> 100	> 100		
O=C1O[C@H]2C3C4CCC(C4[C@@H]2I)[C@H]13 (stereo partly specified)	> 100	> 100	> 100	> 100	> 100	> 100	> 100	> 100	> 100	> 100	> 100		
N#Cc1c(N2CCCC2)nsc1Nc1ccc(F)cc1	> 100	> 100	> 100	> 100	> 100	> 100	> 100	> 100	> 100	> 100	> 100		
CC1(C)CN=CC(C)(OCc2ccccc2)C(=O)NC(C)(C)CN=CC(C)(OCc2ccccc2)C(=O)N1 (stereo unspecified)	> 10	> 10	> 10	> 10	> 10	> 10		> 10	> 10	> 10	> 10		
CCC(=O)N1C(=O)C(CC)(CC)C(=O)N1C(=O)CC	> 100	> 100	> 100	> 100	> 100	> 100	> 100	> 100	> 100	> 100	> 100		
CCN(CC)C1Oc2cc3c(cc2C(c2cccc(OC)c2O)C1C)OCO3 (stereo unspecified)	40.4	21.1	> 100	5.82	13.3	21.9	> 100	> 54	25.3	17.9	28.5		
CN(/N=C/c1ccc(Cl)cc1)C1=NCCCCN1	> 100	> 100	> 100	> 100	> 100	> 100	> 100	> 100	> 100	> 100	> 100		
COc1ccc(N2C(=O)C3c4[nH]c5ccccc5c4C4c5ccccc5CC4C3C2=O)cc1 (stereo unspecified)	> 100	> 100	> 100	> 100	> 100	> 100	> 100	> 100	> 100	> 100	> 100		
CC(C)C1=C(Cc2ccccc2)C(=O)O/C1=C\c1ccc(O)c(Cl)c1	28.1	28.8	38.8	30.1	30.6	31.1	27.8	30.4	26.9	30.3	28		
COc1cc(C(O)C(=O)c2cnc3cc([N+](=O)[O-])ccc3n2)ccc1O (stereo unspecified)	> 100	> 100	> 100			> 100	> 100		> 100	> 100	> 100	> 100	> 100
COc1ccc(Cn2c3ccc([N+](=O)[O-])cc3c(=O)n2Cc2ccccn2)cc1	> 100	> 100	> 100	> 100	> 100	> 100	> 100	> 100	> 100	> 100	> 100		
